# Measurements taken from US20250222005A1, “METHYLENE BLUE CONTAINING COMPOUNDS FOR THE TREATMENT OF METHAEMOGLOBINAEMIA” (Wis Ta Laboratories Ltd., priority 2022, published 2025).
# Columns and labels:
# heme iron of haemoglobin = heme iron of haemoglobin (Homo sapiens, UniProt P68871+P69905); conditions: from crystal field theory (Jorgensen); cited from earlier work
# methaemoglobin = assay: Methaemoglobin (metHb) levels by pulse oximetry in AD trial patients receiving oral LMTM; type: in vivo, human; conditions: for Methaemoglobin, mean %: Table 5A, patients with SpO2 <94% at baseline; for Methaemoglobin, mean %, post dose: 4 hours post-dose, baseline SpO2 <94%; for Methaemoglobin, mean % ± SE: Table 5B, all patients
# Description: (§1) Methods: Eighteen AD trial participants randomised to unit 4/75/100/125 mg doses of LMTM had SPO2 levels below 94% at baseline. Patients were routinely monitored by pulse oximetry after 4 hrs, and after 2 and 6 weeks of twice daily dosing. Computational chemistry was used to understand LMT-heme binding. The study design and results from two Phase 3, double-blind, controlled, randomised, studies of LMTM as a potential treatment for AD were described elsewhere (see “Gauthier, S., et al. “Efficacy and safety of tau-aggregation inhibitor therapy in patients with mild or moderate Alzheimer's disease: a randomised, controlled, double-blind, parallel-arm, phase 3 trial.” Lancet 2016; 388:2873-2884.” and “Wilcock, G K, et al. “Potential of low dose leuco-methylthioninium bis(hydromethanesulphonate) (LMTM) monotherapy for treatment of mild Alzheimer's disease: cohort analysis as modified primary outcome in a Phase Ill clinical trial.” Journal of Alzheimer's Disease 2017; 61:435-457.). In summary, 890 mild/moderate AD patients were randomly assigned (3:3:4) to 150 mg/day, 250 mg/day or 8 mg/day (intended as a control) for 15-months (clinicaltrials.gov NCT01689246). Similarly, 800 patients with mild AD were randomly assigned to 200 mg/day or 8 mg/day LMTM for 18-months (clinicaltrials.gov NCT01689233). In both trials, MetHb and SpO2 levels were measured by pulse oximetery (Massimo Corporation rad 57) at screening, baseline (within 1 hour prior to dosing), post-dose during the 4-hour observation, and subsequent clinic visits at 2 and 6 weeks. Statistical analyses were performed using R-version 3.5.1, employing paired samples t-tests to compare mean SpO2 and metHb levels.
# [1] = tested on: oxygen-haemoglobin dissociation curve; assay: Estimation of effect of LMT treatment on oxygen-haemoglobin dissociation curve (SpO2 to PaO2 conversion table); design: species or system human; conditions: patients with mild hypoxaemia treated with LMTM; SpO2 plotted at baseline-implied PaO2
# [2] = tested on: patients with mild hypoxaemia; assay: Peripheral oxygen saturation (SpO2) by pulse oximetry in AD trial patients with baseline SpO2 below 94% receiving oral LMTM; type: in vivo, human; conditions: for Oxygen saturation, mean %: Baseline (1 hr) 92.167; for Difference in oxygen saturation with respect to baseline: pooled doses; for Oxygen saturation, mean %, post dose: 4 hours post-dose; for Change in mean SpO2 from baseline: four hours
# Description: as §1
# Sequence of heme iron of haemoglobin (P69905 2-142 limits assumed): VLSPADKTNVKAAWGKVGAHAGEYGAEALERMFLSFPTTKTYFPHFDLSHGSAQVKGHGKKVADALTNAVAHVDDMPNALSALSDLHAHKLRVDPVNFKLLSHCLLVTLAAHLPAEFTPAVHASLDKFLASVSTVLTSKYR
# Sequence of heme iron of haemoglobin (P68871 2-147 limits assumed): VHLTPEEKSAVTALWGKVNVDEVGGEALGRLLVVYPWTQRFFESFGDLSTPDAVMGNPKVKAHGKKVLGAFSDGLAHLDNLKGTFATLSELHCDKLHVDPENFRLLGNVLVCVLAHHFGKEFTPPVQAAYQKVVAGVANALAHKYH
structure (smiles),measurement,setting,value
"CN(C)c1ccc2c(c1)Sc1cc(N(C)C)ccc1N2 [LMT, hydromethylthionine]",Estimated field factor of the LMT-heme interaction,heme iron of haemoglobin,1.2-1.5
same,"Methaemoglobin, mean %","methaemoglobin; LMT dose 4 mg, 4 hr, baseline 0.709",0.733%
same,"Methaemoglobin, mean %","methaemoglobin; LMT dose 4 mg, Week 2, baseline 0.709",0.732%
same,"Methaemoglobin, mean %","methaemoglobin; LMT dose 4 mg, Week 6, baseline 0.709",0.769%
same,"Methaemoglobin, mean %","methaemoglobin; LMT dose 150 mg, 4 hr, baseline 0.721",0.781%
same,"Methaemoglobin, mean %","methaemoglobin; LMT dose 150 mg, Week 2, baseline 0.721",0.835%
same,"Methaemoglobin, mean %","methaemoglobin; LMT dose 150 mg, Week 6, baseline 0.721",0.888%
same,"Methaemoglobin, mean %","methaemoglobin; LMT dose 200 mg, 4 hr, baseline 0.702",0.760%
same,"Methaemoglobin, mean %","methaemoglobin; LMT dose 200 mg, Week 2, baseline 0.702",0.849%
same,"Methaemoglobin, mean %","methaemoglobin; LMT dose 200 mg, Week 6, baseline 0.702",0.873%
same,"Methaemoglobin, mean %","methaemoglobin; LMT dose 250 mg, 4 hr, baseline 0.696",0.758%
same,"Methaemoglobin, mean %","methaemoglobin; LMT dose 250 mg, Week 2, baseline 0.696",0.845%
same,"Methaemoglobin, mean %","methaemoglobin; LMT dose 250 mg, Week 6, baseline 0.696",0.858%
same,"Methaemoglobin, mean %, post dose","methaemoglobin; single 4 mg dose, pre-dose 0.70",0.87%
same,"Methaemoglobin, mean %, post dose","methaemoglobin; single high dose (indicated as 100 mg), pre-dose 0.90",0.65%
"CN(C)c1ccc2c(c1)Sc1cc(N(C)C)ccc1N2 [LMTM, leuco-methylthioninium bis(hydromethanesulfonate)]",Implied effect of treatment on the oxygen-haemoglobin dissociation curve,[1],implied left-shift
same,Enhancement of oxygen saturation,"[2]; patients with chronic hypoxaemia, single doses 4-125 mg and 6 weeks twice daily",about 3%
same,"Oxygen saturation, mean %","[2]; pooled data all doses (8 mg/day and 150-250 mg/day), Week 2",95.400%
same,"Oxygen saturation, mean %","[2]; pooled data all doses (8 mg/day and 150-250 mg/day), Week 6",95.571%
same,"Oxygen saturation, mean %","[2]; pooled data all doses, Baseline (4 hr)",95.333%
same,Difference in oxygen saturation with respect to baseline,"[2]; week 2, p=0.0034",+3.17%
same,Difference in oxygen saturation with respect to baseline,"[2]; week 6, p=0.0005",+3.23%
same,"Oxygen saturation, mean %, post dose","[2]; single 4 mg dose, patients with baseline SpO2 <94%, pre-dose 91.71",95.43%
same,Change in mean SpO2 from baseline,"[2]; single 4 mg dose, p=0.0205",+3.72%
same,Change in mean SpO2 from baseline,"[2]; single high dose (75, 100 or 125 mg), p=0.0045",+2.82%
same,"Oxygen saturation, mean %, post dose","[2]; single high dose (75/100/125 mg indicated as 100 mg), baseline SpO2 <94%, pre-dose 92.45",95.27%
same,"Methaemoglobin, mean % ± SE","methaemoglobin; 8 mg (per day), 4 hr, baseline 0.709 ± 0.017, p 0.09732",0.732 ± 0.017%
same,"Methaemoglobin, mean % ± SE","methaemoglobin; 8 mg (per day), Week 2, baseline 0.709 ± 0.017, p 0.1326",0.733 ± 0.018%
same,"Methaemoglobin, mean % ± SE","methaemoglobin; 8 mg (per day), Week 6, baseline 0.709 ± 0.017, p 0.0006916",0.770 ± 0.019%
same,"Methaemoglobin, mean % ± SE","methaemoglobin; 150 mg (per day), 4 hr, baseline 0.721 ± 0.029, p 0.02212",0.7811 ± 0.029%
same,"Methaemoglobin, mean % ± SE","methaemoglobin; 150 mg (per day), Week 2, baseline 0.721 ± 0.029, p <0.0001",0.831 ± 0.032%
same,"Methaemoglobin, mean % ± SE","methaemoglobin; 150 mg (per day), Week 6, baseline 0.721 ± 0.029, p <0.0001",0.889 ± 0.034%
same,"Methaemoglobin, mean % ± SE","methaemoglobin; 200 mg (per day), 4 hr, baseline 0.702 ± 0.025, p 0.01967",0.760 ± 0.023%
same,"Methaemoglobin, mean % ± SE","methaemoglobin; 200 mg (per day), Week 2, baseline 0.702 ± 0.025, p <0.0001",0.849 ± 0.027%
same,"Methaemoglobin, mean % ± SE","methaemoglobin; 200 mg (per day), Week 6, baseline 0.702 ± 0.025, p <0.0001",0.873 ± 0.030%
same,"Methaemoglobin, mean % ± SE","methaemoglobin; 250 mg (per day), 4 hr, baseline 0.696 ± 0.028, p 0.005868",0.758 ± 0.028%
same,"Methaemoglobin, mean % ± SE","methaemoglobin; 250 mg (per day), Week 2, baseline 0.696 ± 0.028, p <0.0001",0.837 ± 0.034%
same,"Methaemoglobin, mean % ± SE","methaemoglobin; 250 mg (per day), Week 6, baseline 0.696 ± 0.028, p <0.0001",0.851 ± 0.033%
same,Difference in metHb levels between baseline and 4-hours post-dose,"methaemoglobin; both treatment groups (4 mg and high single doses), patients with baseline SpO2 <94%",no consistent difference
same,Effect on metHb levels over 6 weeks,"methaemoglobin; higher doses (150, 200 and 250 mg/day), baseline SpO2 <94% subgroup, not statistically significant",systematically increased
